Here are results for two compounds from patent publication US7776558B2, “Human G protein-coupled receptor and modulators thereof for the treatment of cell death-related disorders” (Arena Pharmaceuticals, Inc., priority 2003, dated 2010).

In experiment [1] the target is T1, FPRL1 (Homo sapiens, UniProt P25090).
T1 sequence (P25090 1-351): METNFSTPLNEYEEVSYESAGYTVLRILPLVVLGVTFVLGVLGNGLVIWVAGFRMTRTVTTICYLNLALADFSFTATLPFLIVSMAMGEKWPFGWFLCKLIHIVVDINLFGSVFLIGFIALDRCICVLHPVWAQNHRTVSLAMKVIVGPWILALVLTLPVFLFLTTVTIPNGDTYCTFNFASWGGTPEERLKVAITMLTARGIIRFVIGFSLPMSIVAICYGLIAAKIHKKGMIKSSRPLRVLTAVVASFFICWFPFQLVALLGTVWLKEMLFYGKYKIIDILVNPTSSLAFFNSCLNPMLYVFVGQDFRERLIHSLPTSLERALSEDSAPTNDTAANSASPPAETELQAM
The conditions noted are these: Ying et al. 2002; cited from earlier work.

Experiment [2] deals with human cerebrovascular smooth muscle cells. The conditions noted are these: cited from earlier work.
Experiment [3] has as its target T1, FPRL1. Kind of experiment: [35S]GTPγS binding assay, membranes of transiently transfected CHO cells. The format is biochemical. The arrangement: Full-Length Cloning of Human GPCRs; expressed in transfected cells; host or cells: CHO-K1 cells, transient, pCMV; plasma membranes. Conditions: FIG. 3 panel B, read-out: EC50 at FPRL1, promoted [35S]GTPγS binding. On the technique in general: GTPγS is a poorly hydrolysed GTP analogue; its binding reports G protein activation.

Where no end group is shown, it is not given here.

In the case of `CC[C@H](C)[C@H](NC(=O)[C@H](CCC(=O)O)NC(=O)[C@H](CO)NC(=O)[C@@H](NC(=O)[C@H](CC(C)C)NC(=O)[C@H](CC(C)C)NC(=O)[C@H](CC(C)C)NC(=O)[C@H](CC(C)C)NC(=O)[C@H](CS)NC(=O)[C@H](CO)NC(=O)[C@H](Cc1ccccc1)NC(=O)CNC(=O)[C@H](CCCNC(=N)N)NC(=O)[C@@H]1CCCN1C(=O)[C@H](C)NC(=O)[C@@H](N)CCSC)[C@@H](C)O)C(=O)N[C@@H](CC(=O)O)C(=O)N[C@@H](CC(C)C)C(=O)N1CCC[C@H]1C(=O)N[C@H](C(=O)N[C@@H](CCCCN)C(=O)N[C@@H](CCCNC(=N)N)C(=O)N[C@@H](CCCNC(=N)N)C(=O)N[C@@H](C)C(=O)O)C(C)C` [Humanin], the “Use of FPRL1 as receptor” value in experiment [1] is “uses FPRL1 as a functional receptor”. In addition, the “Rescue from Aβ-induced toxicity” value in experiment [2] is recorded as “rescues human cerebrovascular smooth muscle cells from Aβ-induced toxicity”.

Usually EC50 stands for the concentration that produces a half-maximal response. As for “MAPRGFSCLLLLTGEIDLPVKRRA [[Gly14]-Humanin]”, the EC50 in experiment [3] is approximately 1.5 µM.
